This is an account of results in patent publication US9243254B2, “Method for transforming a bacterium belonging to the streptococcus genus by natural competence” (priority 2009, dated 2016).

The subject of assay [1] is various S. thermophilus strains. The assay can be described thus: Competence induction over the panel of S. thermophilus strains (summary of Table 9). In kind it is cell-based, Streptococcus thermophilus. On the procedure: Similarly to the protocol used in example 4, various S. thermophilus strains, including LMD-9, CNRZ1066 and LMG18311 used as controls, were pre-cultivated in M17-lactose medium. The cells of the precultures were harvested (5000 g, 9 minutes, 20° C.) and washed twice in CDM and then resuspended in CDM. The washed cells were diluted in fresh CDM medium to obtain an optical density of 0.05, and then incubated at 37° C. After 1.5 h of incubation, in one set of experiment, 1 μM of one of the tested synthetic peptides (LPYFAGCL) (SEQ ID NO: 85) and 1 μg/mL of pGIUD0855cat DNA were added to the culture, whereas 1 μg/mL of DNA but no synthetic peptide was added to the second set of experiment. Plasmid pGIUD0855cat is a pUC18-derivative containing a chloramphenicol resistance cassette flanked by 1-kb fragments corresponding to the upstream and downstream regions of stu0855. Upon transformation, it promotes the genetic replacement of stu0855 by P32-cat through homologous recombination (FIG. 7). The cultures were grown during 6 hours and serial dilutions were plated on the surface of M17-lactose agar medium containing 5 μg/mL of chloramphenicol to measure transformation efficiency. Transformed S. thermophilus cells were selected at 37° C.; when transformants were obtained, the transformation efficiency was calculated and is given in Table 9.

The next assay deals with S. salivarius JIM8777. The assay can be described thus: Natural transformation in CDM upon addition of synthetic peptide. In kind it is cell-based, Streptococcus salivarius. On the procedure:
Similarly to the protocol used in example 4, strains LMD-9, LMG18311, CNRZ1066 and JIM8777 were pre-cultivated in M17-lactose medium. The cells of the precultures were harvested (5000 g, 9 minutes, 20° C.) and washed twice in CDM and then resuspended in CDM. The washed cells were diluted in fresh CDM medium to obtain an optical density of 0.05, and then incubated at 37° C. After 1.5 h of incubation, in one set of experiment, 1 μM of one of the tested synthetic peptides and 1 μg/mL of pGIUD0855ery DNA (in case of S. thermophilus strains), or 1 μg/ml of pG+host09 DNA (in case of S. salivarius strains) were added to the culture, whereas 1 μg/mL of DNA but no synthetic peptide was added to the second set of experiment. The cultures were grown during 6 hours and serial dilutions were plated on the surface of M17-lactose agar medium containing 2.5 μg/mL of erythromycin to measure transformation efficiency. Transformed S. thermophilus and S. salivarius cells are selected at 37° C. and 29° C., respectively.
Day 2: • Centrifuge Day 1—culture (centrifugation parameters: 5000 g, 9 minutes, 15° C.) and perform two washing steps with one volume (10 mL) of CDM (centrifugation parameters: 5000 g, 9 minutes, 15° C.). • Dilute the culture in 10 mL CDM to obtain an OD600nm of 0.05. • A small volume of S. thermophilus cultures (300 μL) is then transferred in white microplate with a transparent bottom (655095; Greiner, Alphen aid Rijn, The Netherlands) and is grown at 37° C. Luminescence at 595 nm and optical density at 600 nm are recorded with the automatic Synergy HT multi-mode microplate reader. The luciferase activity catalysed by LuxAB requires the presence of nonanal as substrate. In this experimental set-up, nonanal (Acros Organics ref. 204-688-5) is supplied to the cultures by placing 50 μL of a solution containing 1% nonanal diluted in mineral oil in the spaces between the wells of a covered microplate (11). The nonanal present in the solution will become volatile and there will be an equilibrium between the concentration of nonanal present in the air and in the culture samples. The luminescence and absorbance are scanned every 10 minutes during 6 hours. • To perform a competence experiment, 1 μg of donor DNA is added in the 300 μL samples in the beginning of incubation. […] In case of the sample that received DNA, make different 10-fold dilutions of the sample and plate 100 μL on the same solid selective medium. Check the viability of the cells in the samples by plating 10 μL of serial 10-fold dilutions of the cultures on M17, lactose 1% medium. Transformants are picked following 24 h of incubation at 37° C. in anaerobic conditions (gaspak BBL). […]

With “LPYFAGCL (fragment) [synthetic peptide corresponding to a C-terminal fragment of Shp316]”, in assay [1] (1 μM LPYFAGCL versus no peptide), the “Improvement of the efficiency of transformation by the addition of the peptide” value is “up to 6 Log”. In assay [1] (1 μM LPYFAGCL, 9 competent without peptide), the “Number of strains competent when CDM is supplemented with the peptide” value came to 19 strains. In assay [1] (out of the 19 competent strains), the “Number of strains whose efficiency of transformation was greatly improved by the addition of the peptide” value came to 17 strains.
As for PYFAGCL (fragment), the “Transformation rate, With peptide addition” value in the assay with S. salivarius JIM8777 (1 μM PYFAGCL, 1 μg/mL pG+host9) is listed as 3.07 × 10^−6. Moreover, in the assay with S. salivarius JIM8777 (1 μM peptide, result in words), the “Complementation of the transformation defect in CDM” value is “complements the transformation defect”.
